{"source": "patent US10064843B2", "about": "“Bis-amide derivative and use thereof” (University-Industry Cooperation Group of Kyung Hee …, priority 2013, dated 2018)", "key": {"[1]": {"target": "T1, GST-CypA and NS5A or NS5B (Homo sapiens, UniProt P62937)", "T1 construct": "made in house; host or cells: E. coli (pGEX-KG)", "T1 sequence (P62937 whole entry)": "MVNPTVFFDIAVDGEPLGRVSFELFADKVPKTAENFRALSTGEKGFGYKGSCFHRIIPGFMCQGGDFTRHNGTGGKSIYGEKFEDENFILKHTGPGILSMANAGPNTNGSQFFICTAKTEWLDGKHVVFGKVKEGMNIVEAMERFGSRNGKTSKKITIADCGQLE", "experiment": "GST pull-down assay of CypA with NS5A or NS5B", "format": "binding", "conditions": "2 μM and 4 μM; FIG. 12b", "protocol": "Example 15: Expression and Purification of GST Proteins\nA plasmid pGEX-KG was used for the expression of recombinant proteins in E. coli. GST-CypA, a mutant GST-CypAR55A (a mutation at PPIase site), GST-CypB, GST-NS5A, and the full length GST-NS5B were prepared by a standard replication process. The bacteria expression vector, pGEX-KG, was transformed into TOPIOF cells (Promega, Madison, Wis., USA). The bacteria culture was grown in LB medium containing 100 μg/mL of ampicillin until the optical density at 600 nm reached 0.8 to 1.0. Then, 0.1 mM isopropyl β-D-1-thiogalactopyranoside (IPTG) was added thereto to induce the expression of a GST fusion protein and incubated further at 30° C. for 4 hours. The resulting bacteria was pelleted by centrifugation at 340 g for 20 minutes at 4° C., resuspended in 10 mL PBST (PBS containing 1% Triton X-100), added with 1 mM PMSF, and subjected to sonication at 25% amplitude with a brake at intervals of 10 seconds for 30 minutes. Upon sonication, the bacteria extract was centrifuged at 340 g for 5 minutes at 4° C. and the supernatant containing GST protein was stored at −80° C. The GST fusion protein was cleaved in thrombin-cleaving buffer containing 50 units of thrombin overnight so that the recombinant proteins could be released from the GST-tagged glutathione resin. […]"}, "[2]": {"target": "T2, CypA and NS5A or NS5B (Homo sapiens, UniProt P62937)", "T2 construct": "1 mg/mL of HCV Con1b replicon protein lysate; endogenous in cells; host or cells: Huh7 cells carrying the HCV Con1b subgenomic replicon", "T2 sequence (P62937 whole entry)": "as above", "experiment": "Co-immunoprecipitation and mammalian two-hybrid analysis of CypA with NS5A or NS5B", "format": "cell-based", "conditions": "FIG. 13a, 13b", "protocol": "Example 17: Co-Immunoprecipitation Assay\nFor co-immunoprecipitation, 4 μg of specific antibody and 1 mg/mL of HCV Con1b replicon protein lysate to a final volume of 500 μL were rotated at 4° C. for 4 hours. Then, 20 μL of the washed protein A/G PLUS agarose (Santa Cruz, Calif., USA) was added thereto and incubated at 4° C. overnight. Subsequently, the sample was washed 3 times with Triton-wash-buffer, resuspended, and denatured in 5×SDS-PAGE buffer at 95° C. for 5 minutes. The resultant was centrifuges at 19,000 g for 1 minute at 4° C. and subjected to western blot analysis.\nExample 18: Mammalian Two-Hybrid System\nThe interaction between intracellular CypA-NS5A and CypA-NS5B was confirmed by the two-hybrid screening technology using CheckMate™ mammalian two-hybrid system (Promega, Madison, Wis., USA) according to the manufacturer's instructions. In brief, pACT- and pBIND-based plasmids were co-transfected (TurboFect, FermentasC) to Huh7 cells along with a pG5luc reporter construct, and incubated at 37° C. After 72 hours, the cell lysate was analyzed regarding the luciferase activity."}, "[3]": {"target": "T3, CypA (Homo sapiens, UniProt P62937)", "T3 construct": "GST (N, cleaved yes); made in house; host or cells: E. coli (pGEX-KG)", "T3 sequence (P62937 whole entry)": "as above", "experiment": "2D 1H TOCSY NMR of the WJCPA-126 and CypA complex", "format": "binding", "conditions": "FIG. 4", "excerpt": "In the spin system of […],[…], and […] of CypA, the connectivity was shown in yellow-, green-, and red solid lines. […] From the above result, it was confirmed that the bis-amide compounds of the present invention can specifically bind to […],[…], and […] residues of CypA thereby inhibiting the PPIase activity of CypA."}, "[4]": {"test_system": "calcineurin", "experiment": "Calcineurin phosphorylase analysis in splenocytes", "format": "cell-based, mouse", "conditions": "FIG. 8b", "protocol": "Example 6: Analysis of Calcineurin Phosphorylase\nDephosphorylation of RH phosphopeptide was measured using calcineurin cell activity assay kit (Enzo Life sciences, Plymouth Meeting, Pa., USA) to determine calcium-dependent activity of calcineurin. Splenocytes (2×10^6/well) were incubated along with or WJCPA-126 for 20 hours, and further untreated or stimulated with 1 μg/mL of ionomycin (Calibiochem, La Jolla, Calif., USA). Then, the cells were used for the measurement of calcineurin activity."}}, "data": [{"molecule": "COc1cc(C(C(=O)NC2CCCCC2)N(C(=O)Cc2c[nH]c3ccccc23)c2ccc(C(C)C)cc2)cc(OC)c1OC", "note": "(stereo not shown) [WJCPA-126, N-cyclohexyl-2-[(2-1H-indol-3-yl-acetyl)-(4-isopropyl-phenyl)-amino]-2-(3,4,5-trimethoxy-phenyl)-acetamide]", "values": [{"measurement": "binding between GST-CypA and NS5A or NS5B", "setting": "[1]", "result": "significant decrease of the binding between GST-CypA and NS5A or NS5B"}, {"measurement": "interactions between CypA and NS5A or NS5B", "setting": "[2]", "result": "destroys the interactions between CypA and NS5A or NS5B"}, {"measurement": "binding residues of CypA by NMR", "setting": "[3]", "result": "binds to Arg 55, Trp 121, and Phe 113 residues of CypA"}, {"measurement": "effect on ionomycin-stimulated calcineurin phosphorylase activity", "setting": "[4]", "result": "no inhibitory effect"}]}]}
